Test results as given in patent US8202908B1, “D-aspartic acid supplement” (priority 2008, dated 2012).

Tests used:
pituitary gland = conditions: both in-vitro and in-vivo; cited from earlier work
pituitary = conditions: both in-vitro and in-vivo; cited from earlier work
animals = conditions: cited from earlier work
testes = conditions: both in-vitro and in-vivo; cited from earlier work
finishing pigs = finishing pigs fed with N-methyl-D-aspartate; cited from earlier work
adult male humans = test: Oral DL-aspartic acid given to adult male humans for 21 days, blood hormone levels; assay type: in vivo, human; conditions: adult males aged twenty to sixty; 10, 20 or 40 grams DL-aspartic acid per day orally in two doses for twenty-one days; versus baseline
Protocol: This example illustrates the effects of administering D-aspartic acid to adult male humans.
A group of nine adult males ranging in age from twenty to sixty is divided into three groups of three men each. The division is made so that each group contains a similar age distribution. Blood samples are taken and the levels of testosterone, growth hormone, and insulin-like growth factor 1 are measured.
The men in the first group orally ingest 10 grams of DL-aspartic acid (which includes 5 grams of D-aspartic acid) daily for twenty-one days. The amount is divided into two equal doses, one of which is taken in the morning and one of which is taken in the evening. The men in the second and third groups follow a similar procedure except the men in the second group orally ingest 20 grams of DL-aspartic acid (which includes 10 grams of D-aspartic acid) per day and the men in the third group orally ingest 40 grams of DL-aspartic acid (which includes 20 grams of D-aspartic acid) per day. Blood samples are then retaken.

Compound	growth hormone production from the pituitary gland (pituitary gland)	release of luteinizing hormone from the pituitary (pituitary)	growth hormone levels in the animals (animals)	testosterone levels in the animals (animals)	release of testosterone from the testes (testes)	growth rate (finishing pigs)	level of growth hormone in blood (adult male humans)	level of insulin-like growth factor 1 in blood (adult male humans)	level of testosterone in blood (adult male humans)
N[C@H](CC(=O)O)C(=O)O [D-aspartic acid]	stimulate growth hormone production	stimulate the release	increase	increase	stimulate the release	–	–	–	–
CN[C@H](CC(=O)O)C(=O)O [N-methyl-D-aspartate]	stimulate growth hormone production	–	increase	increase	–	increase in growth rate	–	–	–
NC(CC(=O)O)C(=O)O (racemic) [DL-aspartic acid]	–	–	–	–	–	–	significant increases	significant increases	significant increases
